{"source": "paper PMC10089180", "about": "(Proceedings of the National Academy of Sciences of the …, 2023)", "origin": "cited, not measured here", "molecules": {"B1": {"name": "prochemerin (21-163): Removal of the N-terminal signal peptide results in prochemerin (21-163) (protein, UniProt Q99969 21-163, looked up)", "pro-form": "ELTEAQRRGLQVALEEFHKHPPVQWAFQETSVESAVDTPFPAGIFVRLEFKLQQTSCRKRDWKKPECKVRPNGRKRKCLACIKLGSEDKVLGRLVHCPIETQVLREAEEHQETQCLRVQRAGEDPHSFYFPGQFAFSKALPRS", "modifications": "pro-form"}, "B2": {"name": "Pre-prochemerin: 163-amino acid protein without chemotactic activity (protein, UniProt Q99969 1-163, looked up)", "chain": "MRRLLIPLALWLGAVGVGVAELTEAQRRGLQVALEEFHKHPPVQWAFQETSVESAVDTPFPAGIFVRLEFKLQQTSCRKRDWKKPECKVRPNGRKRKCLACIKLGSEDKVLGRLVHCPIETQVLREAEEHQETQCLRVQRAGEDPHSFYFPGQFAFSKALPRS", "modifications": "full-length"}}, "key": {"[1]": {"conditions": "no reference given"}, "chemerin receptor": {"system": "chemerin receptor", "conditions": "Y1 missing or substituted by alanine; ref [17]"}, "FPR1 [2]": {"molecular_target": "FPR1", "conditions": "ref [38]"}, "FPR1 [3]": {"system": "FPR1", "conditions": "tripeptide; ref [26], [27]"}, "[4]": {"conditions": "ref [15], [16]"}}}
{"molecule": "Asp-Arg-Val-Tyr-Ile-His-Pro-Phe [AngII]", "values": [{"measurement": "chemotactic activity", "setting": "[1]", "value": "does not display chemotactic activity"}]}
{"molecule": "Y1 missing: C9 when Y1 was missing (FPGQFAFS; UniProt Q99969 150-157, looked up, fragment)", "values": [{"measurement": "reduced activity in functional assays", "setting": "chemerin receptor", "value": "~ 30%"}]}
{"molecule": "fMLF", "values": [{"measurement": "dissociation constant", "setting": "FPR1 [2]", "value": "low nanomolar range"}, {"measurement": "agonistic activity at FPR1", "setting": "FPR1 [3]", "value": "full agonistic activity"}]}
{"molecule": "B1", "values": [{"measurement": "chemotactic activity / bioactivity of chemerin form", "setting": "[4]", "value": "low bioactivity"}]}
{"molecule": "B2", "values": [{"measurement": "chemotactic activity / bioactivity of chemerin form", "setting": "[4]", "value": "without chemotactic activity"}]}
